Experimental data as given in publication PMC10578352, “Identification of a Protein Arginine Methyltransferase 7 (PRMT7)/Protein Arginine Methyltransferase 9 (PRMT9) Inhibitor” (Journal of Medicinal Chemistry, 2023).

Legend:
Format in all cases: biochemical
[1] = biological target: T1, PRMT3 (Homo sapiens, UniProt O60678); experiment: HotSpot radioisotope-based filter assay, PRMT3
T1 construct: PRMT3 (residues 2–531, C-terminus); with an N-terminal His-tag; His (N); purchased Reaction Biology Corporation
T1 sequence (O60678 2-531): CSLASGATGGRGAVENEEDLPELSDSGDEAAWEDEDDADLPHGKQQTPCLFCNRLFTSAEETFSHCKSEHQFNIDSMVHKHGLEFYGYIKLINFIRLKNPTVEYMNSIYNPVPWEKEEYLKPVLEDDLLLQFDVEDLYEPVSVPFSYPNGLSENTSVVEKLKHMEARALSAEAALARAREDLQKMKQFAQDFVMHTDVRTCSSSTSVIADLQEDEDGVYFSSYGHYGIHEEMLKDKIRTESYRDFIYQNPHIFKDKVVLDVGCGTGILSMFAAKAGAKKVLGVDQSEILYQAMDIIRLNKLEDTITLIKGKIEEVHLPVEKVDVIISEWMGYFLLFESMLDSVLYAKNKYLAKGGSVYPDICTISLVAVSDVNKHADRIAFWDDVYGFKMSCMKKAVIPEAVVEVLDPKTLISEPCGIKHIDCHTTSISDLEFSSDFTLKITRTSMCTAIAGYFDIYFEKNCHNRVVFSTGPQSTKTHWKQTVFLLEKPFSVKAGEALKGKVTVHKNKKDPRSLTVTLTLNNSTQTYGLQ
Method: (§1) Then, ^3H-SAM (final concentration of 1 μM) was delivered into the reaction mixture to initiate the reaction. After incubation for 60 min at 30 °C, the reaction mixture was delivered to filter-paper for detection (as assessed by scintillation). Data were analyzed using Excel and GraphPad Prism 6.0 software (GraphPad Software Inc., San Diego, CA) for IC50 curve fits using sigmoidal dose vs response - variable slope (four parameters) equations.

[2] = biological target: T2, PRMT4 (Homo sapiens, UniProt Q86X55); experiment: HotSpot radioisotope-based filter assay, PRMT4
T2 construct: PRMT4 (residues 2–608, C-terminus); with an N-terminal GST-tag; GST (N); purchased Reaction Biology Corporation
T2 sequence (Q86X55 2-608): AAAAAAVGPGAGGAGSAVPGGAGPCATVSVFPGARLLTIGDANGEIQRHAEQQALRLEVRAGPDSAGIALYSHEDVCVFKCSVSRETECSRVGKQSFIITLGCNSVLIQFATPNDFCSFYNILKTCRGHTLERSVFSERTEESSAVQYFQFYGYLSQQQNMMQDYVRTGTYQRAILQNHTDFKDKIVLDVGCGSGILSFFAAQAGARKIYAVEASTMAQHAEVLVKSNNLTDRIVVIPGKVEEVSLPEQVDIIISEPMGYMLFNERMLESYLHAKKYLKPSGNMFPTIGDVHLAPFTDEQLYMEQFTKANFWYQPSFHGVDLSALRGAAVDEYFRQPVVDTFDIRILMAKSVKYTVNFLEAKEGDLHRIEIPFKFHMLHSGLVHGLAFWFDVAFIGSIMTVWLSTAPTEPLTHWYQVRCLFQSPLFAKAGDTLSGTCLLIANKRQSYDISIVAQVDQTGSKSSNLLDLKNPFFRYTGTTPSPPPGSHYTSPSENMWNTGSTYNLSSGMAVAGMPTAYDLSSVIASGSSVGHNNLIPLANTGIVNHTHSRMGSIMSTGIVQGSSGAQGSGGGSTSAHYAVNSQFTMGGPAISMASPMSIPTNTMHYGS
Method: as §1

[3] = biological target: T3, EZH2/KMT6 (5 component complex) (Homo sapiens, UniProt Q15910); experiment: HotSpot KMT activity assay, EZH2; settings: read-out: % EZH2 residual activity
T3 construct: including EZH2 residues 2–746, AEBP2 2–517, EED 2–441; His (N); purchased Reaction Biology Corporation
T3 sequence (Q15910 2-746): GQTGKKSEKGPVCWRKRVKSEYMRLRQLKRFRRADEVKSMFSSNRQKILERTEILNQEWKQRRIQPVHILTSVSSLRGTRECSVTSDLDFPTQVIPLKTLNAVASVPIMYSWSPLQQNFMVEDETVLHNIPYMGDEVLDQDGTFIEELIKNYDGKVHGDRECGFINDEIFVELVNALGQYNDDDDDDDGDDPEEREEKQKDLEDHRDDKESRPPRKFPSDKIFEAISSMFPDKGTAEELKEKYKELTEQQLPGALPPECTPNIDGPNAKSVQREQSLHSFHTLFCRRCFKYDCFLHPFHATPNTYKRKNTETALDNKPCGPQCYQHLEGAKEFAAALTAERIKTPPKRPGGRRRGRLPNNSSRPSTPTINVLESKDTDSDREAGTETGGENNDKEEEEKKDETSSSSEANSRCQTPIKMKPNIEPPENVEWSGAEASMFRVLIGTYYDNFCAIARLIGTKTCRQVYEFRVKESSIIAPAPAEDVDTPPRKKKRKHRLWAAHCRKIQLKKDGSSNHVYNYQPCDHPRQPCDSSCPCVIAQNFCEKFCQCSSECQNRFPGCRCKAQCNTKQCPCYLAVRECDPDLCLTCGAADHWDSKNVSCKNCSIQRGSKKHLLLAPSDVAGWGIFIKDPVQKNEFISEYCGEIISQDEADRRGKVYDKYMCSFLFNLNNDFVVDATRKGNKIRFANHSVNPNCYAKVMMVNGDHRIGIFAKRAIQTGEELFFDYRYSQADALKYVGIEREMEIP
T3 sequence (Q6ZN18 2-517 partner limits assumed): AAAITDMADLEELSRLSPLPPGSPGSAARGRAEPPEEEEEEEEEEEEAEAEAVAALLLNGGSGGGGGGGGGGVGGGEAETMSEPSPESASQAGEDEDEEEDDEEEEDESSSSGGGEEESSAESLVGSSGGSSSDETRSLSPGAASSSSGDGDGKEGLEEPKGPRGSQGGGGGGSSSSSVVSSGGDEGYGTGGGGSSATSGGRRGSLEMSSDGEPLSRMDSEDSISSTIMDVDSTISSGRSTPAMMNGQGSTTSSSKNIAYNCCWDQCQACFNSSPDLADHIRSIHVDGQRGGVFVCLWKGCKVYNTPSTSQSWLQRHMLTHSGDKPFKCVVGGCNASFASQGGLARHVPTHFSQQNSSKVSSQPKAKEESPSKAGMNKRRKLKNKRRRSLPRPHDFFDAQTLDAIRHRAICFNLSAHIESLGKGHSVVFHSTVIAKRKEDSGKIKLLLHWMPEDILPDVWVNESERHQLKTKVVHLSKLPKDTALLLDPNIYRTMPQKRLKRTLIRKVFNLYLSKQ
T3 sequence (O75530 2-441 partner limits assumed): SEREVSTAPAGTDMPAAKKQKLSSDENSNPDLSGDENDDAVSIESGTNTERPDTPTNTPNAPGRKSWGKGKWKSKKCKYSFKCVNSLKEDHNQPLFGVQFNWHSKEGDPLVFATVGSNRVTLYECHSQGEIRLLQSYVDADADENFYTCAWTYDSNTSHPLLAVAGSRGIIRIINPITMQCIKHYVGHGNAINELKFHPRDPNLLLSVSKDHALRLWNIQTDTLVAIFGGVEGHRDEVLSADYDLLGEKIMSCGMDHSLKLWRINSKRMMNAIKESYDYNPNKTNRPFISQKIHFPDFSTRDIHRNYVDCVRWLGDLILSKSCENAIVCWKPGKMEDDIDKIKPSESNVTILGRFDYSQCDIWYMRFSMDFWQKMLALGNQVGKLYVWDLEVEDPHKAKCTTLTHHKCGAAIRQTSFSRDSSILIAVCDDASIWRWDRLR
T3 sequence (Q09028 2-425 partner limits assumed): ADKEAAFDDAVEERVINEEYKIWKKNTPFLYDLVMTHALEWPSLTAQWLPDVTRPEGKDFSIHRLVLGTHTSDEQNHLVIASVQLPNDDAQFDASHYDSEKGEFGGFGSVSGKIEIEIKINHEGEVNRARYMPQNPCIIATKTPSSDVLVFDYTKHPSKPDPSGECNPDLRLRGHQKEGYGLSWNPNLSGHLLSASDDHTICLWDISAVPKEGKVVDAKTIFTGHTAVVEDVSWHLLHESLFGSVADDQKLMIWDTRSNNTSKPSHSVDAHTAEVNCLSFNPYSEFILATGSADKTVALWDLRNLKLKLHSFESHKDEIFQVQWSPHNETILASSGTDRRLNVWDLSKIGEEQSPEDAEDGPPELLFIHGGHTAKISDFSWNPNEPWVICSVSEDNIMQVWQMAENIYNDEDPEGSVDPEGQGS
T3 sequence (Q15022 2-739 partner limits assumed): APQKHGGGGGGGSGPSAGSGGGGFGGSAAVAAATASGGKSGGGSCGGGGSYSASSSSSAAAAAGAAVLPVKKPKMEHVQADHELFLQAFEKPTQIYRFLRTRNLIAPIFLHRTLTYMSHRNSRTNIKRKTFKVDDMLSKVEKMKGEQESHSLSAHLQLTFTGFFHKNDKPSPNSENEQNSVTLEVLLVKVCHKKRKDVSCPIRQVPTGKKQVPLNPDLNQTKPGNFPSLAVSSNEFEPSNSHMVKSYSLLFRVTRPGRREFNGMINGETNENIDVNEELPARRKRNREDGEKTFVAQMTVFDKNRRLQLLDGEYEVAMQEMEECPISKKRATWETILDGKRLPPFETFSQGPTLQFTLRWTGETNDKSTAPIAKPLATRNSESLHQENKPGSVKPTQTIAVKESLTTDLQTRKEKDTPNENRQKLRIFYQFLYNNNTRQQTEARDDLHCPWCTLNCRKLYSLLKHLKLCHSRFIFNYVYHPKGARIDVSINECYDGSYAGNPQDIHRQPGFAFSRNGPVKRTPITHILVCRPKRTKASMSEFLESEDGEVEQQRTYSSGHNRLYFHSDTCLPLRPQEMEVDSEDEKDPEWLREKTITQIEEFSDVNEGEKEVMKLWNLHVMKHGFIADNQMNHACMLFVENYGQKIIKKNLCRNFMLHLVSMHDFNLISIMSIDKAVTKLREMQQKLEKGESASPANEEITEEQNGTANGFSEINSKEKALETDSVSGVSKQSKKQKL
Method: (§2) Then, ^3H-SAM (final concentration 1 μM) was delivered into the reaction mixture to initiate the reaction. After incubation for 60 min at 30 °C, the reaction mixture was delivered to filter paper for detection (as assessed by scintillation). […] No inhibitor control (DMSO) was considered as showing 100% enzyme activity. Data were analyzed using Excel and GraphPad Prism 6.0 software (GraphPad Software Inc., San Diego, CA). Values obtained for each compound are mean ± SD determined for two separate experiments.

[4] = biological target: T4, G9a/KMT1C (Homo sapiens, UniProt Q96KQ7); experiment: HotSpot KMT activity assay, G9a; settings: read-out: % G9a residual activity
T4 construct: the human recombinant G9a (residues 913–1193, C-terminus); with an N-terminal His-tag; His (N); purchased Reaction Biology Corporation
T4 sequence (Q96KQ7 913-1193): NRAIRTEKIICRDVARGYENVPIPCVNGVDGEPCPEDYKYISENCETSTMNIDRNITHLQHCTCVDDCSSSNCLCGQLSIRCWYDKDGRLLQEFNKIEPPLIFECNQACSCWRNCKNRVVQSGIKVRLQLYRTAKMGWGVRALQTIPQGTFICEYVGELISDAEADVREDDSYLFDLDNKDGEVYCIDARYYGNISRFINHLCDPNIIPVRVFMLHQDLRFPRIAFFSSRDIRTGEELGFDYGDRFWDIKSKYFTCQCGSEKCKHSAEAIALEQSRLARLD
Method: as §2

[5] = Figure 2, from IC50 values of ref 31

Structure (SMILES): COC(=O)c1cc(O)c2cc(NC(=O)NCCCCCNC(=N)NC[C@H]3O[C@@H](n4cnc5c(N)ncnc54)[C@H](O)[C@@H]3O)ccc2c1 [1c]
- selectivity index for PRMT7 over PRMT3 [1, 5]: 97 fold
- selectivity index for PRMT7 over PRMT4 [2, 5]: 2 fold

Structure (SMILES): COC(=O)c1cc(O)c2cc(NC(=O)NCCCNC(=N)NC[C@H]3O[C@@H](n4cnc5c(N)ncnc54)[C@H](O)[C@@H]3O)cc(C(F)(F)F)c2c1 [1j, Methyl 6-(3-(3-(3-(((2R,3S,4R,5R)-5-(6-Amino-9H-purin-9-yl)-3,4-dihydroxytetrahydrofuran-2-yl)methyl)guanidino)propyl)ureido)-4-hydroxy-8-(trifluoromethyl)-2-naphthoate]
- IC50 ([1]; 5 μM histone H4, 3H-SAM 1 μM): 14.9 µM
- IC50 ([2]; 5 μM histone H3, 3H-SAM 1 μM): 1.46 µM
- remaining activity at 10 µM ([3]; 10 μM): 104.5 ± 0.99%
- remaining activity at 100 µM ([3]; 100 μM): 77.6 ± 3.43%
- remaining activity at 10 µM ([4]; 10 μM): 111 ± 4.3%
- remaining activity at 100 µM ([4]; 100 μM): 70.93 ± 0.31%
